Structures are written as SMILES.

Test system in one data set: not given
Assay: not given
The note with it: from C=CCCC1(C)CCN(c2c([C@H](OC(C)(C)C)C(=O)OC)c(C)cn3nc(C(=O)NCc4ccc(F)cc4OCC=C)cc23)CC1; rcm bond; 19-membered ring; Hoveyda-Grubbs II; then NaOH; DCE; 1.57 mM; 70.0 °C; 2.0 h; 2 steps.
Turning to `COC(=O)[C@@H](OC(C)(C)C)c1c(C)cn2nc3cc2c1N1CCC(C)(CCC=CCOc2cc(F)ccc2CNC3=O)CC1`, the ring closure, yield after HPLC is 53.5%.

Another data set concerns recombinant NL-Rluc virus. Nature of the data set: Inhibition of HIV replication (NL-RLuc luciferase reporter virus in MT-2 cells). The data set is classed as cell-based. To be noted: Human immunodeficiency virus 1, MT2, 120 h. (Reporter assays use an easily measured gene product as a stand-in for the process of interest.)
Turning to `Cc1cc(CNC(=O)c2cc3c(-c4ccc5c6c(ccnc46)CCO5)c([C@H](OC(C)(C)C)C(=O)O)c(C)cn3n2)ccc1F` (atropisomer, axis not shown) [Example 2, (2S)-2-(tert-Butoxy)-2-(4-(2,3-dihydropyrano[4,3,2-de]quinolin-7-yl)-2-((4-fluoro-3-methylbenzyl)carbamoyl)-6-methylpyrazolo[1,5-a]pyridin-5-yl)acetic acid], the EC50 stood at 63 nM.

As for `Cc1ccc2c(c1)-c1cccc(c1)-c1cc3c(c([C@H](OC(C)(C)C)C(=O)O)c(C)cn3n1)N1CCC(C)(CC1)OCCCCC[C@@H](C)O2` (single isomer, unassigned) [Example 31], the EC50 came to 258 nM. As for `Cc1ccc2c(c1)-c1cccc(c1)-c1cc3c(c([C@H](OC(C)(C)C)C(=O)O)c(C)cn3n1)N1CCC(C)(CC1)OCCC[C@H](C)CO2` (single isomer, unassigned) [Example 32], the EC50 is 178 nM.

Regarding `Cc1ccc2c(c1)-c1cccc(c1)-c1cc3c(c([C@H](OC(C)(C)C)C(=O)O)c(C)cn3n1)N1CCC(C)(CC1)OCCC[C@@H](C)CO2` (single isomer, unassigned) [Example 33], the EC50 came out at 116 nM. Still for that read-out and setting: the same measure for `Cc1cc(CNC(=O)c2cc3c(-c4cc(F)c5c(c4C)CCCO5)c([C@H](OC(C)(C)C)C(=O)O)c(C)cn3n2)ccc1F` [Example 1]: 3 nM; for `Cc1cc(CNC(=O)c2cc3c(N4CCC(C)(C)CC4)c([C@H](OC(C)(C)C)C(=O)O)c(C)cn3n2)ccc1F` [Example 3, (S)-2-(tert-Butoxy)-2-(4-(4,4-dimethylpiperidin-1-yl)-2-((4-fluoro-3-methylbenzyl)carbamoyl)-6-methylpyrazolo[1,5-a]pyridin-5-yl)acetic acid]: 17 nM.

For `Cc1cn2nc(-c3ncc(Cc4ccc(F)cc4)s3)cc2c(N2CCC(C)(C)CC2)c1[C@H](OC(C)(C)C)C(=O)O` [Example 4, (S)-2-(tert-Butoxy)-2-(4-(4,4-dimethylpiperidin-1-yl)-2-(5-(4-fluorobenzyl)thiazol-2-yl)-6-methylpyrazolo[1,5-a]pyridin-5-yl)acetic acid], the EC50 was determined as 18 nM. Regarding `Cc1cn2nc(-c3ncc(Cc4ccc(F)cc4)o3)cc2c(N2CCC(C)(C)CC2)c1[C@H](OC(C)(C)C)C(=O)O` [Example 5, (S)-2-(tert-Butoxy)-2-(4-(4,4-dimethylpiperidin-1-yl)-2-(5-(4-fluorobenzyl)oxazol-2-yl)-6-methylpyrazolo[1,5-a]pyridin-5-yl)acetic acid], the EC50 amounted to 5 nM. As to `Cc1cn2nc3ccccc3c2c(-c2cc(F)c3c(c2C)CCCO3)c1[C@H](OC(C)(C)C)C(=O)O` [Example 25, (2S)-2-(tert-Butoxy)-2-(10-(8-fluoro-5-methylchroman-6-yl)-8-methylpyrido[1,2-b]indazol-9-yl)acetic acid], the EC50 amounted to 37 nM.

For the compound `Cc1cn2nc3cc2c(c1[C@H](OC(C)(C)C)C(=O)O)N1CCC(C)(CC/C=C/COc2cc(F)ccc2CNC3=O)CC1` [Example 26, (2S)-2-(tert-Butoxy)-2-[(21E)-16-fluoro-4,25-dimethyl-10-oxo-19-oxa-1,6,11,30-tetraazapentacyclo[23.2.2.1^6,^9.0^2,^7.0^13,^18]triaconta-2,4,7,9(30),13(18),14,16,21-octaen-3-yl]acetic acid], the EC50 is 6 nM.

Turning to `Cc1cn2nc3cc2c(c1[C@H](OC(C)(C)C)C(=O)O)N1CCC(C)(CC1)OC/C=C/COc1ccccc1Cc1cnc-3s1` [Example 27, (2S)-2-(tert-Butoxy)-2-[(23E)-4,27-dimethyl-21,26-dioxa-32-thia-1,6,11,33-tetraazahexacyclo[25.2.2.1^6,^9.1^10,^13.0^2,^7.0^15,^20]tritriaconta-2,4,7,9 (33),10,12,15(20),16,18,23-decaen-3-yl]acetic acid], the EC50 is 4 nM.

`C=CCOC1(C)CCN(c2c([C@H](OC(C)(C)C)C(=O)O)c(C)cn3nc(-c4cccc(Br)c4)cc23)CC1` [Example 28, (S)-2-(4-(4-(Allyloxy)-4-methylpiperidin-1-yl)-2-(3-bromophenyl)-6-methylpyrazolo[1,5-a]pyridin-5-yl)-2-(tert-butoxy)acetic acid]: the EC50 worked out at 138 nM. `Cc1ccc2c(c1)-c1cccc(c1)-c1cc3c(c([C@H](OC(C)(C)C)C(=O)O)c(C)cn3n1)N1CCC(C)(CC1)OCCCC[C@H](C)O2` [Example 29, (2S)-2-(tert-Butoxy)-21[(22S)-4,17,22,28-tetramethyl-21,27-dioxa-1,6,34-triazahexacyclo[26.2.2.1^6,^9.1^10,^14.0^2,^7.0^15,^20]tetratriaconta-2,4,7,9 (34),10(33),11,13,15(20),16,18-decaen-3-yl]acetic acid]: the EC50 was 40 nM. On the same count and under the same terms, under `Cc1ccc2c(c1)-c1cccc(c1)-c1cc3c(c([C@H](OC(C)(C)C)C(=O)O)c(C)cn3n1)N1CCC(C)(CC1)OCCCCC[C@H](C)O2` [Example 30, (2S)-2-(tert-Butoxy)-2-[(22S)-4,17,22,29-tetramethyl-21,28-dioxa-1,6,35-triazahexacyclo[27.2.2.1^6,^9.1^10,^14.0^2,^7.0^15,^20]pentatriaconta-2,4,7,9 (35),10(34),11,13,15(20),16,18-decaen-3-yl]acetic acid] stands 84 nM.

For the compound `Cc1cn2nc3cc2c(c1[C@H](OC(C)(C)C)C(=O)O)N1CCC(C)(CC1)OCCCC[C@H](C)Oc1cccc(F)c1-c1cccc-3c1` [Example 34, (2S)-2-(tert-Butoxy)-2-[(22S)-16-fluoro-4,22,28-trimethyl-21,27-dioxa-1,6,34-triazahexacyclo[26.2.2.1^6,^9.1^10,^14.0^2,^7.0^15,^20]tetratriaconta-2,4,7,9(34),10(33),11,13,15(20),16,18-decaen-3-yl]acetic acid], the EC50 was determined as 14 nM. The same measure, in the same setting: the same measure for `CCC[C@H](C)Oc1cccc(F)c1-c1cccc(-c2cc3c(N4CCC(C)(O)CC4)c([C@H](OC(C)(C)C)C(=O)O)c(C)cn3n2)c1` [Example 35, (2S)-2-(tert-Butoxy)-2-[2-(3-{2-fluoro-6-[(2S)-pentan-2-yloxy]phenyl}phenyl)-4-(4-hydroxy-4-methylpiperidin-1-yl)-6-methylpyrazolo[1,5-a]pyridin-5-yl]acetic acid]: 607 nM; for `Cc1cn2nc3cc2c(c1[C@H](OC(C)(C)C)C(=O)O)N1CCC(C)(CC1)OCCCC[C@H](C)Oc1ccc(F)cc1-c1cccc-3c1` [Example 36, (2S)-2-(tert-Butoxy)-2-[(22S)-17-fluoro-4,22,28-trimethyl-21,27-dioxa-1,6,34-triazahexacyclo[26.2.2.1^6,^9.1^10,^14.0^2,^7.0^15,^20]tetratriaconta-2,4,7,9(34),10(33),11,13,15(20),16,18-decaen-3-yl]acetic acid]: 50 nM; for `Cc1cn2nc3cc2c(c1[C@H](OC(C)(C)C)C(=O)O)N1CCC(C)(CC1)OCCC[C@H](C)Oc1ccc(F)cc1-c1cccc-3c1` [Example 37, (2S)-2-(tert-Butoxy)-2-[(22S)-17-fluoro-4,22,27-trimethyl-21,26-dioxa-1,6,33-triazahexacyclo[25.2.2.1^6,^9.1^10,^14.0^2,^7.0^15,^20]tritriaconta-2,4,7,9(33),10(32),11,13,15(20),16,18-decaen-3-yl]acetic acid]: 29 nM. Still for that read-out and setting: under `Cc1cn2nc3cc2c(c1[C@H](OC(C)(C)C)C(=O)O)N1CCC(C)(CC1)OCCCC[C@H](C)Oc1cc(F)ccc1-c1cccc-3c1` [Example 38, (2S)-2-(tert-Butoxy)-2-[(22S)-18-fluoro-4,22,28-trimethyl-21,27-dioxa-1,6,34-triazahexacyclo[26.2.2.1^6,^9.1^10,^14.0^2,^7.0^15,^20]tetratriaconta-2,4,7,9 (34),10(33),11,13,15 (20),16,18-decaen-3-yl]acetic acid] stands 30 nM; under `Cc1ccc2c(c1F)-c1cccc(c1)-c1cc3c(c([C@H](OC(C)(C)C)C(=O)O)c(C)cn3n1)N1CCC(C)(CC1)OCCCC[C@H](C)O2` [Example 39, (2S)-2-(tert-Butoxy)-2-[(22S)-16-fluoro-4,17,22,28-tetramethyl-21,27-dioxa-1,6,34-triazahexacyclo[26.2.2.1^6,^9.1^10,^14.0^2,^7.0^15,^20]tetratriaconta-2,4,7,9(34),10(33),11,13,15(20),16,18-decaen-3-yl]acetic acid], 38 nM; under `Cc1ccc2c(c1F)-c1cccc(c1)-c1cc3c(c([C@H](OC(C)(C)C)C(=O)O)c(C)cn3n1)N1CCC(C)(CC1)OCCCC[C@@H](C)O2` [Example 40, (2S)-2-(tert-Butoxy)-2-[(22R)-16-fluoro-4,17,22,28-tetramethyl-21,27-dioxa-1,6,34-triazahexacyclo[26.2.2.1^6,^9.1^10,^14.0^2,^7.0^15,^20]tetratriaconta-2,4,7,9(34),10(33),11,13,15(20),16,18-decaen-3-yl]acetic acid], 2350 nM. In the case of `CCCOC1(C)CCN(c2c([C@H](OC(C)(C)C)C(=O)O)c(C)cn3nc(-c4cccc(-c5c(O[C@@H](C)CCC)ccc(C)c5F)c4)cc23)CC1` [Example 41, (2S)-2-(tert-Butoxy)-2-[2-(3-{2-fluoro-3-methyl-6-[(2S)-pentan-2-yloxy]phenyl}phenyl)-6-methyl-4-(4-methyl-4-propoxypiperidin-1-yl)pyrazolo[1,5-a]pyridin-5-yl]acetic acid], the EC50 was 728 nM. Consider `Cc1cn2nc3cc2c(c1[C@H](OC(C)(C)C)C(=O)O)N1CCC(C)(CC1)OCCCC[C@H](C)Oc1ccc(C#N)cc1-c1cccc-3c1` [Example 42, (2S)-2-(tert-Butoxy)-2-[(22S)-17-cyano-4,22,28-trimethyl-21,27-dioxa-1,6,34-triazahexacyclo[26.2.2.1^6,^9.1^10,^14.0^2,^7.0^15,^20]tetratriaconta-2,4,7,9 (34),10(33),11,13,15(20),16,18-decaen-3-yl]acetic acid], for which the EC50 came out at 7 nM.

One may read the EC50 as the concentration giving half of the maximal effect.

For the origin of these results see patent US9527842B2, “Inhibitors of human immunodeficiency virus replication” (priority 2013, dated 2016).
